{
  "source": "patent US7122173B2",
  "about": "“Agent for the treatment of bladder irritative symptoms accompanied by benign prostatic hyperplasia” (Kyowa Hakko Kogyo Co., Ltd., priority 2001, dated 2006)",
  "test_system": "rats with partial urethra obstruction",
  "test": "Bladder capacity in rats with partial outlet obstruction (cystometry)",
  "format": "in vivo, rat",
  "conditions": "oral",
  "description": "The test was carried out in accordance with the method of Saito et al. (J. Urol., 150: 1145–1151 (1993)). Male SD rats of 8 to 9 weeks of age (supplied by Japan SLC) were used in the test. Five to seven animals of these rats were put in each metal cage and reared by allowing them to freely take commercially available chow and water, in a rearing room at a room temperature of from 19 to 25° C. and a humidity of from 30 to 70% under illumination for 12 hours (from 7 a.m. to 7 p.m.) per day. Partial urethra obstruction was induced in rats, as a model of urethral obstruction mimicking BPH. Each rat was anesthetized by intraperitoneal administration of 50 mg/kg of pentobarbital sodium (Dainippon Pharmaceutical) and placed in dorsal position. The abdomen was cut in a length of about 1 cm by median incision to expose the bladder, prostate and the urethra. The bladder neck and bladder base were peeled from the prostate, and two surgical sutures (No. 3, Natsume Seisakusho) were passed behind the urethra base. A polyethylene tube (PE-200; Becton Dickinson) was placed along the urethra, and the urethra was mildly double-ligated together with the tube. The ligation was carried out in such a manner that the urethra was not pressed by the polyethylene tube and the sutures were not loosened. The polyethylene tube was pulled out and the urethra was constricted. On the same day of the above surgery, bladder catheter indwelling operation was carried out. The bladder was exposed, and a polyethylene tube (PE-50; Becton Dickinson) was inserted from the bladder top and fixed with a surgical suture. The other end was exposed subcutaneously from the back neck, plugged and then fixed to the skin with the surgical suture. The bladder was returned to the original position and the abdomen was sutured with the surgical suture. Five to seven days after the urethra obstruction and catheter indwelling operations, the rats with partial urethra obstruction and those subjected to sham-operation were put in Ballman cages (KN-326-1, Natsume Seisakusho) under the restricted state, and a three-way cock was connected to the bladder catheter. A pressure transducer (DX-360; Nihon Kohden) was connected to one end of the three-way cock, and the intravesical pressure signal was amplified via a strain pressure amplifier (AP-601G; Nihon Kohden), measured by a polygraph (RPM-6008; Nihon Kohden) and recorded on a thermal array recorder (RTA-1200; Nihon Kohden). A syringe filled with physiological saline (Otsuka Pharmaceutical Industries, Tokushima, Japan) was connected to the other end of the three-way cock and fixed to an infusion pump (KDS 220; Neuroscience). An FD pickup (TB-611T; Nihon Kohden) equipped with a cup was placed on the downside of the Ballman cage and connected to the strain gauge pressure amplifier, and the micturition volume was recorded on the thermal array recorder as the tension change. After the completion of the preparation, physiological saline kept at room temperature was continuously injected into the bladder at a flow rate of 6 mL/h for about 30 minutes, and the animals periodically expressing micturition contraction were used in the test. After they are allowed to stand for 30 to 60 minutes, residual urine was manually expressed by finger pressure. Five minutes thereafter, the injection of physiological saline into the bladder was started again, and the injection was immediately stopped when micturition was observed. The bladder capacity was calculated from the period of time until expression of micturition (injection rate 6 mL/h×injection period). The residual urine volume was calculated by subtracting the micturition volume at the time of bladder contraction (voided volume per micturition) from the bladder capacity. By repeating 30 minutes of bladder injection of physiological saline 2 to 3 times, respective values were measured and used as the test compound or solvent pre-administration values. […]",
  "key": {"[1]": {"conditions": "before administration (baseline of the Compound 1 group)"}, "[2]": {"conditions": "rats with partial urethra obstruction"}},
  "data": [
    {"compound": "C[C@](O)(C(=O)Nc1cccc2c1C(=O)c1sccc1CS2(=O)=O)C(F)(F)F", "note": "[Compound 1, (S)-(+)-N-(5,5-dioxido-10-oxo-4,10-dihydrothieno[3,2-c][1]benzothiepin-9-yl)-3,3,3-trifluoro-2-hydroxy-2-methylpropanamide]", "values": [
      {"measurement": "Bladder capacity", "setting": "1 h after administration", "value": "0.54 ± 0.08", "unit": "mL"},
      {"measurement": "Residual urine volume", "setting": "1 h after administration", "value": "0.18 ± 0.07", "unit": "mL"},
      {"measurement": "micturition volume", "setting": "1 h after administration", "value": "0.36 ± 0.07", "unit": "mL"},
      {"measurement": "Bladder capacity", "setting": "2 h after administration", "value": "0.46 ± 0.07", "unit": "mL"},
      {"measurement": "Residual urine volume", "setting": "2 h after administration", "value": "0.10 ± 0.05", "unit": "mL"},
      {"measurement": "micturition volume", "setting": "2 h after administration", "value": "0.36 ± 0.07", "unit": "mL"},
      {"measurement": "Bladder capacity", "setting": "3 h after administration", "value": "0.44 ± 0.07", "unit": "mL"},
      {"measurement": "Residual urine volume", "setting": "3 h after administration", "value": "0.18 ± 0.07", "unit": "mL"},
      {"measurement": "micturition volume", "setting": "3 h after administration", "value": "0.27 ± 0.01", "unit": "mL"},
      {"measurement": "Bladder capacity", "setting": "[1]", "value": "0.40 ± 0.04", "unit": "mL"},
      {"measurement": "Residual urine volume", "setting": "[1]", "value": "0.15 ± 0.02", "unit": "mL"},
      {"measurement": "micturition volume", "setting": "[1]", "value": "0.25 ± 0.04", "unit": "mL"},
      {"measurement": "Effect on bladder capacity (in words)", "setting": "[2]", "value": "tended to increase bladder capacity"},
      {"measurement": "Effect on micturition volume (in words)", "setting": "[2]", "value": "significantly increased micturition volume"}
    ]}
  ]
}
